Measured values from patent US12180226B2, “Spirotricycle RIPK1 inhibitors and methods of uses thereof” (Merck Sharp & Dohme LLC, priority 2021, dated 2024).
Counter-ions that a name gives are not always drawn.

Molecular target: RIPK1 (recombinant GST-RIPK1 kinase domain, residues 1-327) (Homo sapiens (Human), UniProt Q13546)
Assay: RIPK1-ADP-Glo Enzymatic Assay
Type: biochemical
Conditions: ADP-Glo; 25 nM GST-RIPK1, 300 μM ATP; assay lower limit ~25 nM; read-out: RIPK1 V0 Ec50
Outline: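 GST-tagged kinase domain (residues 1-327, Sf21-expressed), 25 nM, pre-incubated 30 min with compound at ambient temperature, then reacted 150 min with 300 μM ATP and 3 μM dephosphorylated MBP in HEPES pH 7.3 buffer. ADP measured by ADP-Glo luminescence; EC50 from ten-point titration (top 100000 nM), four-parameter fit.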

Sequence of RIPK1 (recombinant GST-RIPK1 kinase domain, residues 1-327) (Q13546 1-327): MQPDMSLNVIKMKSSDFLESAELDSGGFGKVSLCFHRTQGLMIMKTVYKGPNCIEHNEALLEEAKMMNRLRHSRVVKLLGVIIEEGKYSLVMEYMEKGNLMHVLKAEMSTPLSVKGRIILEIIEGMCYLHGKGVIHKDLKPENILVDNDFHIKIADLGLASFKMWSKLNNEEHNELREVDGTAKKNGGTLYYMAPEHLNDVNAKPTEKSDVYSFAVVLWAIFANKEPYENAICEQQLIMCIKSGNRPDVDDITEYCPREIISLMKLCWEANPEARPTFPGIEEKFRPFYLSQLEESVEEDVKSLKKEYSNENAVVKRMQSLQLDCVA

Structure (SMILES)	EC50 [nM]
O=C(c1cnc2snnc2c1)N1CCC2(CC1)O[C@@H]1CC[C@@H](c3cc(F)cc(F)c3)N1C2=O [Example 6.46, (5′S,7a′R)-5′-(3,5-difluorophenyl)-1-([1,2,3]thiadiazolo-[5,4-b]pyridine-6-carbonyl)tetrahydro-3′H-spiro[piperidine-4,2′-pyrrolo[2,1-b] [1,3]oxazol]-3′-one]	211
CCOC(=O)c1coc(-c2ccnc(N3CCC4(CC3)O[C@@H]3CC[C@@H](c5ccccc5)N3C4=O)c2)n1 [Example 4.173, ethyl 2-{2-[(5′S,7a′R)-3′-oxo-5′-phenyltetrahydro-1H,3′H-spiro[piperidine-4,2′-pyrrolo[2,1-b] [1,3]oxazol]-1-yl]pyridin-4-yl}-1,3-oxazole-4-carboxylate]	69.2
N#Cc1cccc(C(=O)N2CCC3(CC2)O[C@@H]2CC[C@@H](c4cccc(F)c4)N2C3=O)c1 [Example 6.115, 3-[(5′S,7a′R)-5′-(3-fluorophenyl)-3′-oxo-tetrahydro-1H,3′H-spiro[piperidine-4,2′-pyrrolo[2,1-b][1,3]-oxazole]-1-carbonyl] benzonitrile]	< 25
O=C1N2[C@@H](CC[C@H]2c2ccccc2)OC12CCN(c1ccc(C3COC3)c3ccnn13)CC2 [Example 18.2, (5′S,7a′R)-1-[4-(oxetan-3-yl)pyrazolo[1,5-a]pyridin-7-yl]-5′-phenyltetrahydro-3′H-spiro[piperidine-4,2′-pyrrolo[2,1-b][1,3]oxazol]-3′-one]	27.6
N#Cc1ccc(N2CCC3(CC2)C[C@@H]2OC[C@@H](c4ccccc4)N2C3=O)c(F)c1 [Example 11.3, 3-fluoro-4-[(3′R,7a′S)-5′-oxo-3′-phenyltetrahydro-1H,5′H-spiro[piperidine-4,6′-pyrrolo[2,1-b][1,3]oxazol]-1-yl]benzonitrile]	66.9
O=C(c1ccccc1)N1CC2(C1)O[C@@H]1CC[C@@H](c3ccccc3F)N1C2=O [Example 1.19, (5′S,7a′R)-1-benzoyl-5′-(2-fluorophenyl)tetrahydro-3′H-spiro[azetidine-3,2′-pyrrolo[2,1-b]oxazol]-3′-one]	82.9
O=C(c1ccco1)N1CCC2(CC1)O[C@@H]1CC[C@@H](c3cc(F)cc(F)c3)N1C2=O [Example 5.50, (5′S,7a′R)-5′-(3,5-difluoro-phenyl)-1-(furan-2-carbon-yl)tetrahydro-3′H-spiro [piperidine-4,2′-pyrrolo-[2,1-b]oxazol]-3′-one]	< 25
O=C1N2[C@@H](CC[C@H]2c2ccccc2)OC12CCN(c1ccn(-c3cnccn3)n1)CC2 [Example 11.5, (5′S,7a′R)-5′-phenyl-1-[1-(pyrazin-2-yl)-1H-pyrazol-3-yl]tetrahydro-3′H-spiro[piperidine-4,2′-pyrrolo[2,1-b][1,3]oxazol]-3′-one]	67.7
O=C1N2[C@@H](CC[C@H]2c2ccccc2)OC12CCN(c1ncnc3ccnn13)CC2F (single isomer, unassigned) [Example 4.97, (3[R or S],4[S or R], 5′S,7a′R)-3-fluoro-5′-phenyl-1-(pyrazolo [1,5-a][1,3,5]triazin-4-yl)tetrahydro-3′H-spiro[piperidine-4,2′-pyrrolo[2,1-b]oxazol]-3′-one]	< 25
Cc1ncc([C@@H]2CC[C@H]3OC4(CCN(c5ccc(C#N)c(C)n5)CC4)C(=O)N32)cc1F [Example 4.46, 6-[(5′S,7a′R)-5′-(5-fluoro-6-methylpyridin-3-yl)-3′-oxotetrahydro-1H,3′H-spiro[piperidine-4,2′-pyrrolo[2,1-b] [1,3]oxazol]-1-yl]-2-methylpyridine-3-carbonitrile]	46.9
O=C1N2[C@@H](CC[C@H]2c2cccc(F)c2)OC12CCN(c1cc(C(F)F)ncn1)CC2 [Example 4.52, (5′S,7a′R)-1-[6-(difluoromethyl)pyrimidin-4-yl]-5′-(3-fluorophenyl)tetrahydro-3′H-spiro[piperidine-4,2′-pyrrolo[2,1-b] [1,3]oxazol]-3′-one]	69
CC1CN(c2ncnc3ccnn23)CCC12O[C@@H]1CC[C@@H](c3cc(F)cc(F)c3)N1C2=O (stereo partly drawn) [Example 4.264, (5′S,7a′R)-5′-(3,5-difluorophenyl)-3-methyl-1-(pyrazolo[1,5-a] [1,3,5]triazin-4-yl)tetrahydro-3′H-spiro[piperidine-4,2′-pyrrolo[2,1-b] [1,3]oxazol]-3′-one]	< 25
NC(=O)c1nc(N2CCC3(CC2)O[C@@H]2CC[C@@H](c4cc(F)cc(F)c4)N2C3=O)ncc1F [Example 4.184, 2-[(5′S,7a′R)-5′-(3,5-difluorophenyl)-3′-oxotetrahydro-1H,3′H-spiro[piperidine-4,2′-pyrrolo[2,1-b] [1,3]oxazol]-1-yl]-5-fluoropyrimidine-4-carboxamide]	< 25
COc1cc(N2CCC3(CC2)O[C@@H]2CC[C@@H](c4ccccc4)N2C3=O)ncn1 [Example 4.39, (5′S,7a′R)-1-(6-methoxypyrimidin-4-yl)-5′-phenyltetrahydro-3′H-spiro[piperidine-4,2′-pyrrolo[2,1-b] [1,3]oxazol]-3′-one]	22.3
O=C1CCc2c1cccc2C(=O)N1CCC2(CC1)O[C@@H]1CC[C@@H](c3cc(F)cc(F)c3)N1C2=O [Example 5.28, (5′S,7a′R)-5′-(3,5-difluoro-phenyl)-1-(1-oxo-2,3-dihydro-1H-indene-4-carbonyl)tetrahydro-3′H-spiro[piperidine-4,2′-pyrrolo[2,1-b]oxazol]-3′-one]	208
CN(C)c1cccc(C(=O)N2CCC3(CC2)O[C@@H]2CC[C@@H](c4cccc(F)c4)N2C3=O)c1 [Example 6.124, (5′S,7a′R)-1-[3-(dimethylamino)-benzene-1-carbonyl]-5′-(3-fluorophenyl) tetrahydro-3′H-spiro [piperidine-4,2′-pyrrolo[2,1-b][1,3]-oxazol]-3′-one]	< 25
Cc1nc(N2CCC3(CC2)O[C@@H]2CC[C@@H](c4ccccc4)N2C3=O)sc1C [Example 11.32, (5′S,7a′R)-1-(4,5-dimethyl-1,3-thiazol-2-yl)-5′-phenyltetrahydro-3′H-spiro[piperidine-4,2′-pyrrolo[2,1-b][1,3]oxazol]-3′-one]	319
O=C1N2[C@@H](CC[C@H]2c2cc(F)cc(F)c2)OC12CCN(c1ccc(C3CCC3)c3ccnn13)CC2 [Example 18.1, (5′S,7a′R)-1-(4-Cyclobutylpyrazolo[1,5-a]pyridin-7-yl)-5′-(3,5-difluorophenyl)tetrahydro-3′H-spiro[piperidine-4,2′-pyrrolo[2,1-b]oxazol]-3′-one, TFA salt]	159
Cc1nc(N2CCC3(CC2)OC2CCC(c4cnccn4)N2C3=O)ccc1C#N (stereo not drawn) [Example 4.142, 2-methyl-6-[3′-oxo-5′-(pyrazin-2-yl)tetrahydro-1H,3′H-spiro[piperidine-4,2′-pyrrolo[2,1-b] [1,3]oxazol]-1-yl]pyridine-3-carbonitrile]	< 25
O=C(C1CC1)N1CCC2(CC1)O[C@@H]1CC[C@@H](c3cc(F)cc(F)c3)N1C2=O [Example 1.8, (5′S,7a′R)-1-(cyclopropanecarbonyl)-5′-(3,5-difluorophenyl)tetrahydro-3′H-spiro[piperidine-4,2′-pyrrolo[2,1-b] [1,3]oxazol]-3′-one]	256
O=C(c1cc(Cl)ccc1F)N1CCC2(CC1)O[C@@H]1CC[C@@H](c3cc(F)cc(F)c3)N1C2=O [Example 5.61, (5′S,7a′R)-1-(5-chloro-2-fluorobenzoyl)-5′-(3,5-difluorophenyl)tetrahydro-3′H-spiro[piperidine-4,2′-pyrrolo[2,1-b]oxazol]-3′-one]	< 25
O=C1N2[C@@H](CC[C@H]2c2cc(F)cc(F)c2)OC12CC1CCC(C2)N1c1ccnc2c(F)cnn12 (stereo partly drawn) [Example 4.254, (5′S,7a′R)-5′-(3,5-difluorophenyl)-8-(3-fluoropyrazolo[1,5-a]pyrimidin-7-yl)tetrahydro-3′H-spiro[8-azabicyclo[3.2.1]octane-3,2′-pyrrolo[2,1-b] [1,3]oxazol]-3′-one]	126
O=C1N2[C@@H](CC[C@H]2c2ccccc2)OC12CCN(c1ncnc3c1COC3)CC2 [Example 4.222, (5′S,7a′R)-1-(5,7-dihydrofuro[3,4-d]pyrimidin-4-yl)-5′-phenyltetrahydro-3′H-spiro[piperidine-4,2′-pyrrolo[2,1-b] [1,3]oxazol]-3′-one]	57.3
N#Cc1cc(N2CCC3(CC2)O[C@@H]2CC[C@@H](c4cccc(F)c4)N2C3=O)ncn1 [Example 4.122, 6-[(5′S,7a′R)-5′-(3-fluorophenyl)-3′-oxotetrahydro-1H,3′H-spiro[piperidine-4,2′-pyrrolo[2,1-b] [1,3]oxazol]-1-yl]pyrimidine-4-carbonitrile]	35.6
Cc1ccc([C@@H]2CC[C@H]3OC4(CCN(C(=O)c5ccccc5)CC4)C(=O)N32)cc1F [Example 17.15, (5′S,7a′R)-1-(benzenecarbonyl)-5′-(3-fluoro-4-methylphenyl)tetrahydro-3′H-spiro[piperidine-4,2′-pyrrolo[2,1-b][1,3]oxazol]-3′-one]	< 25
O=C1N2[C@H](CC[C@@H]2c2ccccc2)SC12CCN(c1ccnc3ccnn13)CC2 [Example 4.115, (5′R,7a′S)-5′-phenyl-1-(pyrazolo[1,5-a]pyrimidin-7-yl)tetrahydro-3′H-spiro[piperidine-4,2′-pyrrolo[2,1-b]thiazol]-3′-one]	180
Cc1ncc([C@@H]2CC[C@H]3OC4(CCN(C(=O)c5ccccc5)CC4)C(=O)N32)cc1F [Example 2.1, (5′S,7a′R)-1-benzoyl-5′-(5-fluoro-6-methylpyridin-3-yl)tetrahydro-3′H-spiro[piperidine-4,2′-pyrrolo[2,1-b]oxazol]-3′-one, TFA salt.]	76.5
